Patent publication US20230270764A1, “COMPOSITION COMPRISING CANNABINOIDS, TERPENES, AND FLAVONOIDS FOR TREATING DEPRESSION” (priority 2020, published 2023)

Legend:
[1] = system: treatment-resistant major depression patients; experiment: Clinical trial of celecoxib plus CBD in treatment-resistant major depression patients; format: in vivo, human; details: celecoxib or CBD, each by itself
Experimental: In the current study, the antidepressant effect of a combination of celecoxib and CBD is tested in a randomized, prospective, double-blind clinical trial in 80 treatment-resistant major depression patients of both genders, in the age range of 23-70 years. […] The safety and efficacy of celecoxib, CBD and their combination vs. vehicle placebo are assessed. Primary endpoints include the changes from baseline to post-treatment in overall depression levels, and particularly in the vegetative and somatic symptoms of depression, which are highly associated with the inflammatory status of the patients. Secondary endpoints include the changes from baseline to post-treatment in anxiety levels, overall functioning and clinical impression, as well as anhedonia.
Treatment-resistant depressed patients undergo psychological assessment using the Montgomery-Asberg Depression Rating Scale (MADRS), with further analysis of the 3 specific factors of this scale (vegetative symptoms, dysphoria, and retardation), the Somatic Symptoms Scale-8, the Hamilton Anxiety Rating Scale (HARS), the Clinical Global Improvement and Severity Scales (CGI-I and CGI-S), and the Snaith-Hamilton Pleasure Scale (SHAPS). Subjects are treated twice daily (per os) with either a formulation containing celecoxib and CBD or with vehicle placebo. […]

[2] = system: LPS-injected mice; experiment: Social exploration test in the LPS-induced model of depression; format: in vivo
Excerpt: In a preliminary screening experiment, subjects were 4-6 months-old male C57BL/6 (Jackson Laboratories, USA). Animals were housed 2-3/cage, kept in an air-conditioned room (23+°C) and given ad libitum access to food and water. The mice were kept in a reversed light/dark cycle, with lights off from 7 a.m. to 7 p.m. All experiments were approved by the Hebrew University of Jerusalem Ethics Committee on Animal Care and Use. In preparation for the Sucrose Preference Test, mice were habituated 2-3 times to sucrose drinking, by exposing them overnight to two graduated tubes, one containing water and the other containing sucrose solution (1%, w/v). Water and sucrose consumption were measured, and sucrose preference was computed by dividing the amount of sucrose consumed by drinking (ml sucrose) by the total drinking volume (ml of sucrose + water). One day later, the weight of the mice and the food in their cages was weighed for later analysis of food consumption and body weight changes. […] In this test, the measured locomotor activity reflects not only motor capacity, but particularly the innate motivation for spatial exploration (which increases the distance travelled) and the anxiety level (which reduces the distance travelled, in general, and particularly the distance and time spent in the center of the open field). […] The distance travelled (cm), the velocity of the movement (cm/second), the time spent (seconds), distance travelled (cm) in the center area of the arena, as well as the number of entries from the perimeter area into the center of the arena were automatically measured over a 4-minute period, using EthoVision XT video tracking system and software (Noldus, The Netherlands). […] Social exploration, defined as the time of near contact between the nose of the subject and the juvenile in the small cage was recorded for 4 min, using computerized in-house software. Sucrose preference was assessed, as described above, between 8 to 27 hr post LPS injection. […]

[3] = system: LPS-injected mice; experiment: Porsolt forced swim test in LPS-injected mice; format: in vivo; details: young-adult male mice
Experimental: Given the mixed effects that CBD administration had in the reversal of LPS-induced depressive-like behavior in young-adult mice, the effects of CBDA by itself, and in combination with CBD, were examined in young-adult (2.5-3.5 months old) female and male mice. Mice were injected (i.p.) with either vehicle, CBDA or CBD and CBDA combination, and 1 hr later with LPS (330 µg/kg). Following injections, the mice were examined according to the methods described in Example 8, apart from the Porsolt forced swim test that replaced the open field test in male mice. In this test, mice were placed in a plastic cylinder (with a height of 20 cm and diameter of 50 cm), filled with 25° C. water. The time spent immobile, defined as the absence of all movement except for motions required to maintain head above water, and the latency for the first immobility episode, were recorded for 6 min, and manually analyzed by an experienced experimenter.

C=C(C)[C@@H]1CCC(C)=C[C@H]1c1c(O)cc(CCCCC)cc1O [CBD, cannabidiol]
changes in depression, anxiety, anhedonia and subjective improvement [1]: only mild changes | social exploration vs LPS-injected vehicle-treated mice ([2]; adult (6-9 months-old) male mice, acute CBD): significantly increased social interest | social exploration ([2]; adult and young adult female mice, acute CBD, saline or LPS): None of these parameters was influenced by treatment with CBD | LPS-induced reduction in social exploration ([2]; young-adult male mice, CBD 30 mg/kg i.p. 3 consecutive days): no effects

C=C(C)[C@@H]1CCC(C)=C[C@H]1c1c(O)cc(CCCCC)c(C(=O)O)c1O [CBDA, Cannabidiolic acid]
time spent in immobility, forced swim test ([3]; CBDA 1, 5 mg/kg, CBD 25 and CBDA 1 mg/kg): no significant difference | latency to the first episode of immobility ([3]; printed: CBDA 1 mg/kg): significantly increased
